Consider three compounds from paper PMC9781803, “Phenotypic and Target-Directed Screening Yields New Acaricidal Alternatives for the Control of Ticks” (Molecules, 2022).

SMILES strings stand for the structures. Bounds are passed on as bounds.

In data set [1] the test system is embryonic cell line BME26. The experiment in a line: Phenotypic screening on BME26 cell cultures (MTT viability). Format: cell-based, R. microplus. The following applies: for IC50: BME26 cells, 24 h, MTT, read-out: IC50; for inhibition at 100 µM: synthetic compounds at 100 μM, BME26, 24 h, read-out: % of Growth Inhibition. As to the method: The embryonic cell line BME26 from R. microplus (Centro de Biotecnologia, Universidade Federal do Rio Grande do Sul, Porto Alegre, RS, Brazil) was grown as adherent monolayers in a complete medium, as described previously, which consisted of L-15B300 medium supplemented with 5% heat-inactivated Fetal Bovine Serum (FBS) (Gibco Co., Grand Island, NY), 10% Tryptose Phosphate Broth (TPB) (BD), penicillin (100 U/mL), streptomycin ([…], Gibco Co., Grand Island, NY, USA), and 0.1% bovine lipoprotein concentrate (ICN), (pH 7.2). The suspension of embryonic BME26 cells from R. microplus was seeded into 24-well plates (5 × 10^5 cells/well) to a final volume of 500 μL in a complete medium, and allowed to attach. After 24 h incubation at 34 °C, the extracts (100 µg/mL final concentration) and the compounds were added to the final concentrations indicated (1–100 µM), and 0.05% dimethylsulfoxide (DMSO) was used in the negative control wells. After 24 h of treatment, 50 μL of 3-(4,5-dimethylthiazol-2-yl)-2,5-diphenyltetrazolium bromide (MTT) prepared in serum-free medium (5 mg/mL) was added to each well. The media were discarded after 2 additional hours of incubation, and 1 mL of acid-isopropyl alcohol (0.15% HCl in isopropyl alcohol) was added to dissolve the formazan crystals. The mixture was transferred to 1.5 mL tubes, centrifuged at 6000× g for 15 min, and the clear supernatant was collected in new tubes for absorbance measurement at 570 nm using quartz cuvettes in a UVmini-1240 UV–vis spectrophotometer (Shimadzu, Japan). Absorbance values of the control treatment were used for normalization (100% viability). The activity was determined by analysis using OriginLab8.5® sigmoidal regression (% of viable cells compared to the logarithm of the compound concentration). The half-maximal inhibitory concentration (IC50), defined as the drug concentration at which 50% of the cells were viable relative to the control (no drug added), was used as a measurement of activity. These experiments were performed in triplicate for each compound.

Data set [2] deals with J774.1 murine macrophages. The experiment in a line: Cytotoxicity assay on murine macrophages (MTT). Format: cell-based. The following applies: Mus musculus, J774.1, 48 h, read-out: IC50 (µM) Mammalian Cells. As to the method:
J774.1 murine macrophages (ATCC, Rockville, MD, USA) were grown in a DMEM culture medium containing 4 mM L-glutamine, and supplemented with 10% FCS. The cells were seeded into a 96-well plate (5 × 10^4 cells in 200 µL culture medium) and incubated at 37 °C in a 5% CO2 atmosphere for 48 h, to allow cell adhesion before drug testing. Afterward, the cells were exposed for 48 h to the compounds (25–400 μM) or the vehicle (0.4% DMSO), and additional controls (cells in medium) were used in each test. Cell viability was then assessed by measuring the mitochondria-dependent reduction of MTT to formazan: for this, MTT in sterile PBS (0.2% glucose), pH 7.4, was added to the macrophages, to a final concentration of 0.1 mg/mL, and the cells were then incubated at 37 °C for 3 h. After removing the medium, the formazan crystals were dissolved in 180 μL of DMSO and 20 μL of MTT buffer (0.1 M glycine, 0.1 M NaCl, 0.5 mM EDTA, pH 10.5), and the absorbance was measured at 560 nm. The IC50 was defined as the drug concentration at which 50% of the cells were viable, relative to the control (no drug added), and was determined by analysis using OriginLab 8.5 Corporation, Northampton, MA, USA, sigmoidal regression (% of viable cells compared to the logarithm of the compound concentration). The tests were performed in triplicate in two independent experiments.

Data set [3] deals with fully engorged females of the Mozo susceptible strain of R. microplus. The data set can be described thus: Adult Immersion Test (AIT). It counts as in vivo. The following applies: for % of Mortality AIT: compounds 1.5 mM, 15 min immersion, 14 days. As to the method: This essay was performed based on Drummond et al., 1973, as each group of 5 fully engorged females of the Mozo susceptible strain of R. microplus was immersed in 50 mL tubes containing 10 mL of compounds at different concentrations (0.5, 1, 1.5, 2, 3.5 mM) for 15 min in four replicates. Four negative control groups were used (DMSO 10%). After immersion, the fully engorged females were lightly dried with absorbent paper. They were then placed in 100 mm disposable Petri dishes with their respective identification, and immediately incubated at 27 °C in an atmosphere with relative humidity (RH) of 85-90% for 14 days. […] The tubes carrying the eggs were closed with hydrophilic cotton, and were returned to the incubator chamber under the same conditions until the eggs hatched. The reproductive efficacy, as well as % control of each compound on R. microplus, was calculated according to published reports. The results were verified in two independent experiments.

Data set [4] deals with R. microplus (Mozo strain) larvae. The data set can be described thus: Larval Immersion Test (LIT). The following applies: compounds 1.0 mM, 10 min immersion, 24 h. It counts as in vivo. As to the method:
(§1) This assay was performed based on the method of Castro-Janer et al., 2011. Fully engorged females of R. microplus (Mozo strain) were incubated in Petri dishes at 27 °C and 85–90% relative humidity for 14 days. […] The tubes were incubated in the same conditions as described above. The larvae were ready for testing after 14 to 21 days from egg-hatching. For the test, the compounds were diluted in DMSO, and were later resuspended in distilled water, always using 15% DMSO of the final solution volume. The concentrations for the different compounds for the final immersion solution are 1 mg/mL for the extracts, and 1 mM for the compounds. […] For the immersion procedure, tubes containing the larvae were placed vertically, without the cotton plug, and the larvae were taken with a brush from the top of the tube, ensuring they were viable. A cluster with a diameter of 2 mm of larvae was collected with a brush, and was later immersed in each solution, as well as in both control solutions, for 10 min. After this time, the solutions were drained, and the larvae were placed in 8.5 cm × 7.5 cm Whatman No. 1 filter papers. The filters were folded in the middle of the 8.5 cm side, and closed with 3 bulldog clips, forming packets. These packets were incubated for 24 h, under the same conditions as described previously, and then the percent of mortality was determined, considering it as the % of the control.

The subject of a further data set is R. microplus. The experiment in a line: Acaricidal activity on R. microplus (LIT and AIT, overall statement). As to conditions: LIT 1 mM and AIT 1.5 mM. Format: in vivo. As to the method:
as §1, with “After immersion, the fully engorged females were lightly dried with absorbent paper. […] The tubes carrying the eggs were closed with hydrophilic cotton, and were returned to the incubator chamber under the same conditions until the eggs hatched. The reproductive efficacy, as well as % control of each compound on R. microplus, was calculated according to published reports. The results were verified in two independent experiments. This” for “This”, “2011.” for “2011. Fully engorged females of R. microplus (Mozo strain) were incubated in Petri dishes at 27 °C and 85–90% relative humidity for 14 days.”, “volume.” for “volume. The concentrations for the different compounds for the final immersion solution are 1 mg/mL for the extracts, and 1 mM for the compounds.”

On the set-up of data set [5]: method as in PMID 28481276. The following applies: experimental data; cited from earlier work.
On the set-up of data set [6]: method as in PMID 28481276. The following applies: in mice; cited from earlier work.
In data set [7] the test system is ticks of the population of multiresistant field. The data set can be described thus: Adult immersion test on multiresistant field population (Table S3). The following applies: preliminary study. It counts as in vivo, R. microplus.

In general, IC50 refers to the midpoint of a concentration-inhibition curve. In general, inhibition refers to the share of the control response that was lost under treatment. For `O=C(/C=C/c1cccs1)/C=C/c1cccs1` [compound 796], the concentration for half-maximal inhibition (IC50) in data set [1] is 15 ± 3 µM; in data set [2], over 50 µM. Moreover, the inhibition at 100 µM in data set [1] turned out to be 93%. Also, the “% of Mortality AIT” value in data set [3] was determined as 20 ± 1%. Moreover, in data set [4], the “% of Mortality LIT” value amounted to 36 ± 8%. Also, in the data set on R. microplus, the “acaricidal activity (in words)” value was “acaricidal potential against R. microplus similar to Amitraz”. For the same compound, the “Mutagenicity by Ames Test” value in data set [5] is on record as “Negative *”. Further, the “LD50 (mg/kg)” value in data set [6] is on record as >2000^+ mg/kg.
For `Cc1ccc(/N=C/N(C)/C=N/c2ccc(C)cc2C)c(C)c1` [Amitraz, reference compound], the “% of Mortality AIT” value in data set [3] is recorded as 100%. Also, in data set [4], the “% of Mortality LIT” value was determined as 100%.
For orientation: LC50 means the concentration that kills 50% of the test population. A higher LC50 goes with lower toxicity. `O=C(/C=C/c1ccccn1)c1ccccc1O` [compound 885]: in data set [1], the IC50 came to 17 ± 4 µM and the inhibition at 100 µM stood at 91%. Further, in data set [2], the IC50 is over 50 µM. For the same compound, the LC50 in data set [3] (adult females) turned out to be 1000 µM. In data set [3], the “% of Mortality AIT” value is given as 100 ± 9%. Besides, the “% of Mortality LIT” value in data set [4] was found to be 100 ± 9%. Also, in the data set on R. microplus, the “acaricidal activity (in words)” value is given as “acaricidal potential against R. microplus similar to Amitraz”. The “acaricidal activity on multiresistant strain (in words)” value in data set [7] is “had acaricidal activity”.
